Consider 13 compounds from article doi:10.1101/2023.10.01.560353v1 (bioRxiv, 2023).

In brackets after ≈: the same amount, converted by molar mass. Peptide text beside a SMILES is read from it.

Experiment [1] deals with 11 clinically relevant bacterial pathogens. Description: MIC over the panel of pathogens. It is filed as cell-based. The settings on record: Table S17; lowest MIC over the strains tested.
Another experiment relates to A. baumannii ATCC19606. As to the kind of experiment: Outer membrane permeabilization, NPN uptake. Format: cell-based, Acinetobacter baumannii. The settings on record: peptide at its MIC; polymyxin B as positive control; three replicates.
Experiment [2] has as its system A. baumannii ATCC 19606. As to the kind of experiment: MIC, broth microdilution. It is filed as cell-based, Acinetobacter baumannii. The following applies: broth microdilution in LB, 20 h at 37 °C, OD600; mean of three replicates. On the technique in general: Dilution methods test growth across graded concentrations, often in twofold steps.
Experiment [3] relates to A. baumannii ATCC 19606. Description: Neutropenic thigh infection mouse model. It is filed as in vivo, CD-1 mice. The following applies: single intraperitoneal dose at MIC, n = 6.

With `CC[C@H](C)[C@H](N)C(=O)N[C@@H](CO)C(=O)N[C@@H](CC(C)C)C(=O)N[C@@H](Cc1ccccc1)C(=O)N[C@H](C(=O)N[C@@H](CCCNC(=N)N)C(=O)N1CCC[C@H]1C(=O)N[C@@H](CC(C)C)C(=O)N[C@@H](C)C(=O)N[C@@H](CC(C)C)C(=O)NCC(=O)N[C@H](C(=O)N[C@@H](CCCNC(=N)N)C(=O)N[C@@H](CC(C)C)C(=O)O)C(C)C)[C@@H](C)CC` [Psephotellin-1] (H-ISLFIRPLALGVRL-OH), in experiment [1], the “MIC (lowest MIC value obtained in the antimicrobial activity assays)” value (“MIC” below) was determined as 16000 mM (≈ 25100 mg/mL). The “outer membrane permeabilization (NPN uptake)” value in the experiment with A. baumannii ATCC19606 was “permeabilized the outer membrane”.
For `CC[C@H](C)[C@H](NC(=O)[C@H](CO)NC(=O)CNC(=O)[C@H](CC(C)C)NC(=O)[C@H](CC(C)C)NC(=O)[C@H](CC(C)C)NC(=O)[C@H](CCCNC(=N)N)NC(=O)[C@H](CCCCN)NC(=O)[C@@H](NC(=O)[C@H](CO)NC(=O)[C@H](CC(N)=O)NC(=O)[C@@H](NC(=O)[C@H](CC(C)C)NC(=O)[C@@H](N)CC(C)C)[C@@H](C)CC)[C@@H](C)CC)C(=O)N[C@@H](CC(C)C)C(=O)O` [Arctodutin-1] (H-LLINSIKRLLLGSIL-OH), the “MIC” value in experiment [1] is 2000 mM (≈ 3330 mg/mL). Further, the “outer membrane permeabilization (NPN uptake)” value in the experiment on A. baumannii ATCC19606 is given as “permeabilized the outer membrane”.
Turning to `CC[C@H](C)[C@H](NC(=O)[C@@H](N)CC(C)C)C(=O)N[C@H](C(=O)N[C@@H](CS)C(=O)N[C@@H](Cc1ccccc1)C(=O)N[C@@H](Cc1ccccc1)C(=O)N[C@@H](CCCNC(=N)N)C(=O)N[C@@H](CCC(N)=O)C(=O)N[C@@H](CC(C)C)C(=O)N[C@@H](CCCCN)C(=O)N[C@@H](Cc1ccccc1)C(=O)N[C@@H](Cc1c[nH]cn1)C(=O)N[C@@H](Cc1ccccc1)C(=O)O)C(C)C` [Megalocerin-1] (H-LIVCFFRQLKFHF-OH), the “MIC” value in experiment [1] came to 8000 mM (≈ 13600 mg/mL). The “Minimal Inhibitory Concentration: A. baumannii ATCC19606” value (shortened to “Minimal Inhibitory Concentration”) in the experiment on A. baumannii ATCC 19606 [2] was found to be 8 µmol/L.
As to `CC[C@H](C)[C@H](N)C(=O)N[C@@H](Cc1ccccc1)C(=O)N[C@@H](CC(C)C)C(=O)N[C@@H](Cc1c[nH]cn1)C(=O)N[C@@H](CC(C)C)C(=O)N[C@@H](CCCCN)C(=O)N[C@H](C(=O)N[C@@H](CC(C)C)C(=O)N[C@@H](CCCCN)C(=O)N[C@H](C(=O)N[C@H](C(=O)N[C@@H](CCCNC(=N)N)C(=O)N[C@@H](CC(C)C)C(=O)N[C@@H](CC(C)C)C(=O)O)[C@@H](C)CC)[C@@H](C)CC)[C@@H](C)CC` [Elephasin-2] (H-IFLHLKILKIIRLL-OH), the “MIC” value in experiment [1] is 1000 mM (≈ 1730 mg/mL). Further, the “reduction of the bacterial load four days post-treatment” value in the experiment with A. baumannii ATCC 19606 [3] was 3-4 orders of magnitude. Also, the “Minimal Inhibitory Concentration” value in the experiment on A. baumannii ATCC 19606 [2] is 1 µmol/L.
With `CC(C)C[C@H](NC(=O)CNC(=O)[C@H](CCCNC(=N)N)NC(=O)[C@H](CCCCN)NC(=O)[C@H](CCCNC(=N)N)NC(=O)[C@@H](N)CCCCN)C(=O)N[C@@H](CCCCN)C(=O)N[C@@H](CC(C)C)C(=O)N[C@@H](C)C(=O)N[C@H](C(=O)N[C@@H](C)C(=O)N[C@@H](CC(C)C)C(=O)N[C@@H](CO)C(=O)N[C@@H](CC(C)C)C(=O)N[C@@H](CC(N)=O)C(=O)N[C@@H](CC(N)=O)C(=O)N[C@@H](CCCCN)C(=O)N[C@@H](Cc1ccccc1)C(=O)O)[C@@H](C)O` [Mylodonin-2] (H-KRKRGLKLATALSLNNKF-OH), the “MIC” value in experiment [1] worked out at 32000 mM (≈ 65900 mg/mL). Also, the “Minimal Inhibitory Concentration” value with A. baumannii ATCC 19606 [2] came out at 64 µmol/L.
In the case of `CC[C@H](C)[C@H](N)C(=O)N[C@@H](CC(C)C)C(=O)N[C@@H](CC(C)C)C(=O)N[C@H](C(=O)N[C@H](C(=O)N[C@@H](C)C(=O)N[C@H](C(=O)N[C@@H](C)C(=O)N[C@H](C(=O)N[C@@H](CCCCN)C(=O)N[C@@H](CC(C)C)C(=O)NCC(=O)N[C@@H](CC(C)C)C(=O)O)[C@@H](C)CC)[C@@H](C)CC)[C@@H](C)O)[C@@H](C)O` [Ararin-1] (H-ILLTTAIAIKLGL-OH), in experiment [1], the “MIC” value worked out at 32000 mM (≈ 42900 mg/mL).
In the case of `CC[C@H](C)[C@H](NC(=O)[C@H](CCCCN)NC(=O)[C@H](CCCCN)NC(=O)[C@H](Cc1ccccc1)NC(=O)[C@H](Cc1ccccc1)NC(=O)[C@@H](NC(=O)[C@@H](NC(=O)[C@H](CO)NC(=O)[C@H](CCCCN)NC(=O)[C@@H](NC(=O)[C@@H](NC(=O)[C@H](Cc1c[nH]c2ccccc12)NC(=O)[C@H](CCCCN)NC(=O)[C@H](CCCCN)NC(=O)[C@@H](NC(=O)[C@H](CCC(=O)O)NC(=O)[C@H](CCCCN)NC(=O)[C@H](CC(C)C)NC(=O)[C@@H](NC(=O)[C@H](CCCCN)NC(=O)[C@H](CCCNC(=N)N)NC(=O)[C@H](CC(C)C)NC(=O)[C@H](CC(C)C)NC(=O)[C@@H](N)CCCCN)C(C)C)[C@@H](C)O)C(C)C)[C@@H](C)CC)C(C)C)C(C)C)C(=O)N[C@@H](CCCNC(=N)N)C(=O)N[C@@H](CCCCN)C(=O)O` [Hesperelin-1] (H-KLLRKVLKETKKWVIKSVVFFKKIRK-OH), in experiment [1], the “MIC” value turned out to be 2000 mM (≈ 6490 mg/mL). Also, the “Minimal Inhibitory Concentration” value in the experiment on A. baumannii ATCC 19606 [2] worked out at 8 µmol/L.
`CC[C@H](C)[C@H](NC(=O)[C@@H]1CCCN1C(=O)[C@H](CC(N)=O)NC(=O)[C@@H]1CCCN1C(=O)[C@@H]1CCCN1C(=O)[C@H](CCCCN)NC(=O)[C@@H](N)CCCCN)C(=O)N[C@@H](CCCCN)C(=O)N1CCC[C@H]1C(=O)N[C@@H](CCCCN)C(=O)N[C@H](C(=O)N1CCC[C@H]1C(=O)N[C@@H](CC(C)C)C(=O)N[C@@H](CO)C(=O)N[C@@H](C)C(=O)N1CCC[C@H]1C(=O)N[C@@H](CCCNC(=N)N)C(=O)N[C@@H](CCCCN)C(=O)N[C@@H](CO)C(=O)N1CCC[C@H]1C(=O)N[C@@H](CC(N)=O)C(=O)N[C@H](C(=O)N[C@H](C(=O)N[C@@H](CCCCN)C(=O)N[C@@H](Cc1ccc(O)cc1)C(=O)N[C@@H](CCCNC(=N)N)C(=O)N[C@@H](CC(C)C)C(=O)N[C@@H](CCCCN)C(=O)N[C@@H](Cc1ccccc1)C(=O)N[C@@H](CCCNC(=N)N)C(=O)O)C(C)C)[C@@H](C)O)C(C)C` [Mammuthusin-5] (H-KKPPNPIKPKVPLSAPRKSPNTVKYRLKFR-OH): the “MIC” value in experiment [1] came out at 32000 mM (≈ 112000 mg/mL).
For `CC[C@H](C)[C@H](NC(=O)[C@H](CO)NC(=O)[C@H](CCCNC(=N)N)NC(=O)[C@H](C)NC(=O)[C@H](Cc1c[nH]cn1)NC(=O)[C@H](CC(C)C)NC(=O)[C@H](CS)NC(=O)[C@H](C)NC(=O)[C@@H](N)CCCNC(=N)N)C(=O)N[C@@H](C)C(=O)N[C@@H](CCCNC(=N)N)C(=O)N[C@@H](CC(C)C)C(=O)N[C@@H](Cc1c[nH]cn1)C(=O)N[C@@H](CCCCN)C(=O)N[C@@H](CCCNC(=N)N)C(=O)N[C@@H](Cc1c[nH]c2ccccc12)C(=O)N[C@@H](CCCNC(=N)N)C(=O)N1CCC[C@H]1C(=O)N[C@H](C(=O)N[C@@H](Cc1c[nH]cn1)C(=O)N[C@@H](CCC(N)=O)C(=O)NCC(=O)N[C@@H](CC(C)C)C(=O)NCC(=O)N[C@@H](CC(C)C)C(=O)N[C@@H](CCCCN)C(=O)O)C(C)C` [Mammuthusin-2] (H-RACLHARSIARLHKRWRPVHQGLGLK-OH), the “MIC” value in experiment [1] is 32000 mM (≈ 97900 mg/mL). In addition, in the experiment with A. baumannii ATCC 19606 [3], the “reduction of the bacterial load four days post-treatment” value is listed as 3-4 orders of magnitude. The “Minimal Inhibitory Concentration” value in the experiment on A. baumannii ATCC 19606 [2] was 32 µmol/L.
For the compound polymyxin B [reference compound], the “reduction of the bacterial load two days post-treatment” value in the experiment on A. baumannii ATCC 19606 [3] was 4-5 orders of magnitude.
Take `CC[C@H](C)[C@H](NC(=O)[C@H](CCCCN)NC(=O)[C@@H](N)CCCNC(=N)N)C(=O)N[C@@H](CC(C)C)C(=O)NCC(=O)N[C@@H](CC(=O)O)C(=O)N[C@@H](CC(C)C)C(=O)N[C@@H](CCCCN)C(=O)N[C@@H](Cc1ccccc1)C(=O)N[C@@H](CC(C)C)C(=O)N[C@@H](CCC(=O)O)C(=O)N[C@@H](CO)C(=O)N[C@@H](CC(C)C)C(=O)N[C@@H](CCCCN)C(=O)N[C@H](C(=O)N[C@@H](Cc1ccc(O)cc1)C(=O)O)[C@@H](C)O` [Anomalopterin-1] (H-RKILGDLKFLESLKTY-OH): the “MIC” value in experiment [1] is 64000 mM (≈ 123000 mg/mL).
Turning to `CC[C@H](C)[C@H](NC(=O)[C@H](CC(C)C)NC(=O)[C@@H](NC(=O)[C@H](CCCCN)NC(=O)[C@H](Cc1c[nH]c2ccccc12)NC(=O)[C@@H](NC(=O)[C@H](CCCCN)NC(=O)[C@H](CC(=O)O)NC(=O)[C@@H](NC(=O)[C@H](CC(C)C)NC(=O)[C@H](Cc1ccccc1)NC(=O)[C@H](C)NC(=O)CNC(=O)[C@@H](NC(=O)[C@@H](N)CCCCN)C(C)C)C(C)C)C(C)C)[C@@H](C)O)C(=O)O` [Anomalopterin-2] (H-KVGAFLVDKVWKTLI-OH), the “MIC” value in experiment [1] is 32000 mM (≈ 54900 mg/mL).
Consider `CC[C@H](C)[C@H](NC(=O)[C@H](Cc1ccccc1)NC(=O)[C@H](CC(N)=O)NC(=O)[C@@H](NC(=O)[C@@H](NC(=O)[C@H](Cc1c[nH]cn1)NC(=O)[C@@H](N)CC(C)C)[C@@H](C)O)[C@@H](C)CC)C(=O)N[C@H](C(=O)N[C@@H](CCCCN)C(=O)N[C@@H](CO)C(=O)N[C@@H](CC(C)C)C(=O)N[C@@H](CC(C)C)C(=O)N[C@@H](CC(C)C)C(=O)O)[C@@H](C)CC` [Bisonin-1] (H-LHTINFIIKSLLL-OH), for which, in experiment [1], the “MIC” value turned out to be 16000 mM (≈ 24400 mg/mL).
